The text below walks through data of patent publication US20240400521A1, “QUINAZOLINE COMPOUND, COMPOSITION, AND APPLICATION THEREOF” (BEIJING SCITECH-MQ PHARMACEUTICALS LIMITED, priority 2021, published 2024).

One experiment deals with T1, EGFR^WT kinase (Homo sapiens, UniProt P00533).
T1 construct: purchased Carna Biosciences 08-115
The experiment can be described thus: EGFR^WT kinase assay (ULight peptide / Eu-PT66 antibody detection). Format: biochemical. The text has this: (§1) Reagents and consumables: ULight™-labeled Ploy GT Peptide (Perkin Elmer, Cat. No. TRF-0100-M); ULight™-labeled JAK-1 (Try1023) Peptide (Perkin Elmer, Cat. No. TRF-0121-M); Eu-W1024-labeled Anti-Phosphotyrosine Antibody (PT66) (Perkin Elmer, Cat. No. AD0068); 10×Detection Buffer (Perkin Elmer, Cat. No. CR97-100); HER2 Kinase (Carna Biosciences, Cat. No. 08-016); EGFR kinase (Carna Biosciences, Cat. No. 08-115); HEPES (GIBCO, Cat. No. 15630-080); EGTA (Sigma, Cat. No. 03777-10G); EDTA (Sigma, Cat. No. EDS-100G); MgCl2 (Sigma, Cat. No. 63069-100ML); DTT (Sigma, Cat. No. 43816-10ML); Tween-20 (Sigma, Cat. No. P7949-100ML); DMSO (Life Science, Cat. No. 0231-500ML); 384-well plates (Perkin Elmer, Cat. No. 607290); multifunctional plate reader (Perkin Elmer, Cat. No. Envision)
(§2) Preparation of compound solution: The assay compound was dissolved in DMSO to form a 10 mM stock solution. Prior to use, the compound was diluted to 0.25 mM in DMSO (100 times the final concentration of the diluent) and then subjected to a 3-fold concentration gradient dilution to obtain a total of 11 concentrations. The solution was diluted with buffer to a diluent with 4× the final concentration when the drug was added.
(§3) EGFR^WT kinase assay: buffer was prepared, and 3.48 nM 4× EGFR kinase solution, 600 μM 4× ATP solution, and 400 nM 4×ULight™-labeled JAK-1 (Try1023) Peptide substrate solution was prepared using the buffer. After the preparation was completed, the enzyme was mixed with different concentrations of compounds pre-prepared by dilution, and the mixture was left to stand at room temperature for 5 min. Each concentration was performed in duplicate. The corresponding substrate and ATP were added and the mixture was reacted at room temperature for 120 minutes (with negative and positive controls). After completion of the reaction, PT66 detection antibody was added. The mixture was incubated at room temperature for 60 minutes, and then detected by Envision.
(§4) Data Calculation: the reading of well and inhibition rate were calculated using Excel, wherein reading of well=10000*(well EU665 value)/(well EU615 value), and inhibition rate=[(reading of positive control well−reading of assay well)/(reading of positive control well−reading of negative control well)]*100%. Compound concentrations and corresponding inhibition rates were input into GraphPad Prism for processing to calculate IC50 values.

The target of a further experiment is T2, HER2 kinase (Homo sapiens, UniProt P04626).
T2 construct: purchased Carna Biosciences 08-016
Kind of experiment: HER2 kinase assay (ULight peptide / Eu-PT66 antibody detection). In kind it is biochemical.
From the text: as §1, §2
as §3, with “HER2 kinase” for “EGFR^WT kinase”, “and 40” for “and 3.48”, “4× HER2” for “4× EGFR”, “solution, 40” for “solution, 600”, “4×ULight™-labeled Ploy GT” for “4×ULight™-labeled JAK-1 (Try1023)”, “solution were” for “solution was”
as §4

T2 sequence (P04626 23-1255): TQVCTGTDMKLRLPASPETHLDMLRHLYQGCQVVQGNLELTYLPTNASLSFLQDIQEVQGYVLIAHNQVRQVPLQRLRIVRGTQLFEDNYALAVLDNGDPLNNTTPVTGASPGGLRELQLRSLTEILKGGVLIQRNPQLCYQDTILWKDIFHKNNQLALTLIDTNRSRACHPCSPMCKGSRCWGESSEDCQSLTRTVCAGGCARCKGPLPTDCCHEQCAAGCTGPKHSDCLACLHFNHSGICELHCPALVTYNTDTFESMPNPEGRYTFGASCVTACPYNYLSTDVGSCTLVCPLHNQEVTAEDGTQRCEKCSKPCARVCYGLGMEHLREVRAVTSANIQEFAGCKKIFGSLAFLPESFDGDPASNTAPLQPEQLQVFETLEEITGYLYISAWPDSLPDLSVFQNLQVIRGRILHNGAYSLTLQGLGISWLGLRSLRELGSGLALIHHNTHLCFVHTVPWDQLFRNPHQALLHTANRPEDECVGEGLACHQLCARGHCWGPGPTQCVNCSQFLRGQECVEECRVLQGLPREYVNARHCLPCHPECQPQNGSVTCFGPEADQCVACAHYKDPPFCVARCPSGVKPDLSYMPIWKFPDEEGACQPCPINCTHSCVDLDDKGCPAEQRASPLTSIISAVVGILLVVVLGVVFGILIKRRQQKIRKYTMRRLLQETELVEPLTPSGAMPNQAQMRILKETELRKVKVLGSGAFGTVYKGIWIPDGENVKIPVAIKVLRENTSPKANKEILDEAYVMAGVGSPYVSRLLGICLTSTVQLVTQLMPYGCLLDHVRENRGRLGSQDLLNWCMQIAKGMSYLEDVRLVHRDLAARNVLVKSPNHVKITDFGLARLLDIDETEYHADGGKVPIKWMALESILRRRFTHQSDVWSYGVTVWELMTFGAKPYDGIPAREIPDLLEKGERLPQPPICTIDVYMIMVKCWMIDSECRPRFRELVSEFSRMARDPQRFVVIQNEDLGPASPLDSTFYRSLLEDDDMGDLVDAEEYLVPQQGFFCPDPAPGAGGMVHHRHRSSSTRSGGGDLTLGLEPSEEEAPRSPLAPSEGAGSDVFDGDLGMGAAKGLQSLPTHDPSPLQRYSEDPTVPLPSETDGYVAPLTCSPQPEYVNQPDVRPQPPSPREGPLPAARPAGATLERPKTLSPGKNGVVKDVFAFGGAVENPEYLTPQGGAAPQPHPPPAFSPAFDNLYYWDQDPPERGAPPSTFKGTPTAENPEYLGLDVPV
T1 sequence (P00533 25-1210): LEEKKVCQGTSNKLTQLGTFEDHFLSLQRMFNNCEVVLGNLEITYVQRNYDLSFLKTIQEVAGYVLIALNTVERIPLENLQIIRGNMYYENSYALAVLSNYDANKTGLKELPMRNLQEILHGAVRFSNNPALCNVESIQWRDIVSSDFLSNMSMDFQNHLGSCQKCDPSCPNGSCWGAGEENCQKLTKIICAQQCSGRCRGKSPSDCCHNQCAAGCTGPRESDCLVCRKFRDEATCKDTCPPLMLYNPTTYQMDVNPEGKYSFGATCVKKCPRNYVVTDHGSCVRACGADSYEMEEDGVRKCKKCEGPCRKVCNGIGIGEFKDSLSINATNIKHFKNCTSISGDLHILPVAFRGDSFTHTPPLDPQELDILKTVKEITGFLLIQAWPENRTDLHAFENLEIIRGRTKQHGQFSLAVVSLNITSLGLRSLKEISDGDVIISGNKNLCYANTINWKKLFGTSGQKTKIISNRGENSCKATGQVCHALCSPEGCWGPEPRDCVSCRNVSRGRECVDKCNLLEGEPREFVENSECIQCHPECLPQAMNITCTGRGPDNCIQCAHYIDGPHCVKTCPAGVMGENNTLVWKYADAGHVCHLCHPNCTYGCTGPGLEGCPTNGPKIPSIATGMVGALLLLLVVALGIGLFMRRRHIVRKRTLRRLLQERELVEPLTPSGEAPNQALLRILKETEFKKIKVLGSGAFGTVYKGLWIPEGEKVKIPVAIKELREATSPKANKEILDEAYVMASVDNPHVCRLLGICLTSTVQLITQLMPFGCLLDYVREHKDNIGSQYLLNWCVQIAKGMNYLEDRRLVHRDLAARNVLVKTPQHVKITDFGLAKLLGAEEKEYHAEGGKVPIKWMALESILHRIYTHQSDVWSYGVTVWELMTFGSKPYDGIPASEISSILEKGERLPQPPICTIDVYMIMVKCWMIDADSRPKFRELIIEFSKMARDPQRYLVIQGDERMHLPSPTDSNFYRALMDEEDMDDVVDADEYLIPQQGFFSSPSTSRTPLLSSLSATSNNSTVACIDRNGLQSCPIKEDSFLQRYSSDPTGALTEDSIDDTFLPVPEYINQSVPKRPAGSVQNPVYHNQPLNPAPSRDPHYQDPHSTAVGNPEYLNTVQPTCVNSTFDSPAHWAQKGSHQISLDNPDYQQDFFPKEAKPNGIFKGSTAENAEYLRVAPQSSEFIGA

With `COc1c(NC(=O)/C=C/CN(C)C)ccc2ncnc(Nc3cccc(Cl)c3F)c12` [Example 1, (E)-N-(4-((3-chloro-2-fluorophenyl)amino)-5-methoxyquinazolin-6-yl)-4-(dimethylamino)but-2-enamide], the IC50 (usually the concentration needed to halve the response being measured) at EGFR^WT kinase was at most 1 nM; on HER2 kinase it was 100 to 1000 nM.
